Measured values: paper PMC12281424, “A Rac-specific competitive inhibitor of guanine nucleotide binding reduces metastasis in triple-negative breast cancer” (Cell Reports Medicine, 2025)

Columns and labels:
[1] = target: CDKL4(h) (Homo sapiens, UniProt Q5MAI5); assay: Kinase Profiler; assay type: biochemical
Description: (§4) The kinase profiler was performed by the company Eurofins (Discovery, Panlab and Cerep).

[2] = target: Abl (Q252H) (h) (Homo sapiens, UniProt P00519, Q252H); assay: Kinase Profiler; assay type: biochemical
Description: as §4

[3] = target: ULK3(h) (Homo sapiens, UniProt Q6PHR2); assay: Kinase Profiler; assay type: biochemical
Description: (§5) Blood cell counts, kinase profiler, safety screen, bacterial cytotoxicity, Ames, micronucleus assays were performed by the company Eurofins (France). The kinase profiler was performed by the company Eurofins (Discovery, Panlab and Cerep).

[4] = target: EGFR(T790M)(h) (Homo sapiens, UniProt P00533, T790M); assay: Kinase Profiler; assay type: biochemical
Description: as §4

[5] = target: PI3K (p110b/p85a)(h) (Homo sapiens, UniProt P42338); assay: Kinase Profiler; assay type: biochemical
Description: as §5

[6] = target: Serotonin (5-Hydroxytryptamine) 5-HT1A (Homo sapiens, UniProt P08908); assay: Safety screen; assay type: binding
Description: as §5

[7] = target: T1, RAC2 (Homo sapiens, UniProt P15153); assay: GEF-stimulated nucleotide exchange; assay type: biochemical; parameters: dose or concentration left out as unconfirmed
T1 construct: Full-length RAC2, RHOG, RHOA and CDC42 were purified as previously described; made in house
Description: (§1) Figure 4 A41 selectively impairs RAC protein activation (A) Representative surface plasmon resonance (SPR) sensograms of binding of immobilized RHOA or CDC42 with indicated increasing concentrations of A41 (N > 3). (B) Effect of A41 on GEF-stimulated RAC2, RHOG, RHOA, and CDC42 nucleotide exchange. […] Kobs is expressed as mean ± SEM. ∗p < 0.001 vs. control. (C) Effect of A41 on RAC1 G30S activation. […] The GEF TRIO was used to induce nucleotide exchange (N = 3). Data are expressed as mean ± SEM. (D) Immunoblot analysis and associated quantification of RAC-GTP level and total RAC expression in NIH-3T3 fibroblasts expressing RAC wild-type (RAC1 WT) or RAC1 oncomutants (RAC1 P29S and RAC1b) in the absence (Ctrl) and presence of A41 (10 μM). RAC activation was measured as the ratio of RAC-GTP to total RAC and expressed relative to Ctrl condition. Data are presented as mean ± SEM. ∗∗∗p < 0.001 vs. controls.
(§2) Full-length RAC1 carrying a 6xHis tag in C-terminus was purified as previously described.[64] […] Specific exchange activity toward RHOA determined by fluorescence kinetics is 0.04 s^−1M^−1.
(§3) Nucleotide exchange kinetics were measured by recording the increase in fluorescence following the association of mant-GTP on GDP-bound RHO protein or the decay in fluorescence following the dissociation of mant-GDP pre-loaded onto the RHO protein (λEx = 360 nm, λEm = 440 nm) as previously described.[39] […]

[8] = target: T2, RHOG (Homo sapiens, UniProt P84095); assay: GEF-stimulated nucleotide exchange; assay type: biochemical; parameters: dose or concentration left out as unconfirmed
T2 construct: Full-length RAC2, RHOG, RHOA and CDC42 were purified as previously described; made in house
Description: as §1, §2, §3

[9] = target: MST1(h) (Homo sapiens, UniProt Q13043); assay: Kinase Profiler; assay type: biochemical
Description: as §5

[10] = target: JAK1(h) (Homo sapiens, UniProt P23458); assay: Kinase Profiler; assay type: biochemical
Description: as §4

[11] = target: SAPK3(h) (Homo sapiens, UniProt P53778); assay: Kinase Profiler; assay type: biochemical
Description: as §4

[12] = target: IRAK4(h) (Homo sapiens, UniProt Q9NWZ3); assay: Kinase Profiler; assay type: biochemical
Description: as §4

[13] = target: MAPKAP-K3(h) (Homo sapiens, UniProt Q16644); assay: Kinase Profiler; assay type: biochemical
Description: as §4

[14] = target: PKCα(h) (Homo sapiens, UniProt P17252); assay: Kinase Profiler; assay type: biochemical
Description: as §4

CDKL4(h), sequence (Q5MAI5 whole entry): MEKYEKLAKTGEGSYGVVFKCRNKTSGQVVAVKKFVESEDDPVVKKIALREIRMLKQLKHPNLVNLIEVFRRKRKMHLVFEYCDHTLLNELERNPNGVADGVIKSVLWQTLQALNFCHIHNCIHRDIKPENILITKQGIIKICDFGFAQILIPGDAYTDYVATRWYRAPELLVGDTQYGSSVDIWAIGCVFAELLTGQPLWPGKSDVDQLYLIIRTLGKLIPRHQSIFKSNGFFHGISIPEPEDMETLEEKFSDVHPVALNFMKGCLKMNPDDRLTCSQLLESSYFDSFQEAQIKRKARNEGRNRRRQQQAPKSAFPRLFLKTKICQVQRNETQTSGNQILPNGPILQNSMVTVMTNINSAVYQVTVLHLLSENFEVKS
JAK1(h), sequence (P23458 whole entry): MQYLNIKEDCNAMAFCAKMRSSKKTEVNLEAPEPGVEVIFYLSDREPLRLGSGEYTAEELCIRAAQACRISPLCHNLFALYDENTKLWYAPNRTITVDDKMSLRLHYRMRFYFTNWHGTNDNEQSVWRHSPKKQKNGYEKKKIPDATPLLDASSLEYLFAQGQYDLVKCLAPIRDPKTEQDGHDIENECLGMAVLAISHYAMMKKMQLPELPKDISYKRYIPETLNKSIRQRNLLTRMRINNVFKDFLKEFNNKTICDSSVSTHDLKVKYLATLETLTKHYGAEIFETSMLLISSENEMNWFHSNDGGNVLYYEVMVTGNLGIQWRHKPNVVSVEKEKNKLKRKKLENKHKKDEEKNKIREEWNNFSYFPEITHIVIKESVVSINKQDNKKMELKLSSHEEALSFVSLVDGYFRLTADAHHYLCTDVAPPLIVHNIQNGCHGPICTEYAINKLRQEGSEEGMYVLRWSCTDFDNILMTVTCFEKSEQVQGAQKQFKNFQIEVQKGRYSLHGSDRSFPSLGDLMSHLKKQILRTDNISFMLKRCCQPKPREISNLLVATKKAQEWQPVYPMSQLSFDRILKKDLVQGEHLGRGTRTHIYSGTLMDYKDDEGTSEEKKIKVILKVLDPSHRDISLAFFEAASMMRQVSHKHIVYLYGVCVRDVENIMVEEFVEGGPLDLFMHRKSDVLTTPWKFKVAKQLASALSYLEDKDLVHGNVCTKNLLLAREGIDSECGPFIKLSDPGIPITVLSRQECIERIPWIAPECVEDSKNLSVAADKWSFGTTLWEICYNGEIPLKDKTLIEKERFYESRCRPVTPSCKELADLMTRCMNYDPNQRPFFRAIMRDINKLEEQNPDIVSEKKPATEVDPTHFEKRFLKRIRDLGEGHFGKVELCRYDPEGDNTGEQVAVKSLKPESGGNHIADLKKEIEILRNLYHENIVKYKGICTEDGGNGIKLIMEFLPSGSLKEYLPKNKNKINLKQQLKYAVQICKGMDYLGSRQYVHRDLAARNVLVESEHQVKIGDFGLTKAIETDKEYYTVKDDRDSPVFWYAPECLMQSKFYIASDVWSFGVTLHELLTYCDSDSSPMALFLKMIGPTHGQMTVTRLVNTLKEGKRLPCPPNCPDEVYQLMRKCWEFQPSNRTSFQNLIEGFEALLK
Serotonin (5-Hydroxytryptamine) 5-HT1A, sequence (P08908 whole entry): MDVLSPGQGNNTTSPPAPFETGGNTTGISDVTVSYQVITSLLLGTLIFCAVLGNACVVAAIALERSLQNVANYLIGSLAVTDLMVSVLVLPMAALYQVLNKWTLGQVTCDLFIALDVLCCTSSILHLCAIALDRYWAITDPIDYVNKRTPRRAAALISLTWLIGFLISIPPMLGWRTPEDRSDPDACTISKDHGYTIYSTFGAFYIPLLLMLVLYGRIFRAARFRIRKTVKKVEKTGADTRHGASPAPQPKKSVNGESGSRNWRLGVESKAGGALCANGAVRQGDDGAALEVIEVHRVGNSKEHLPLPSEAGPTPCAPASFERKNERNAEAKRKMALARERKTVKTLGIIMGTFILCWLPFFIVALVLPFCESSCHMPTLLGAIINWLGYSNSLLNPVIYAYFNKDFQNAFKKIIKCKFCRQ
IRAK4(h), sequence (Q9NWZ3 whole entry): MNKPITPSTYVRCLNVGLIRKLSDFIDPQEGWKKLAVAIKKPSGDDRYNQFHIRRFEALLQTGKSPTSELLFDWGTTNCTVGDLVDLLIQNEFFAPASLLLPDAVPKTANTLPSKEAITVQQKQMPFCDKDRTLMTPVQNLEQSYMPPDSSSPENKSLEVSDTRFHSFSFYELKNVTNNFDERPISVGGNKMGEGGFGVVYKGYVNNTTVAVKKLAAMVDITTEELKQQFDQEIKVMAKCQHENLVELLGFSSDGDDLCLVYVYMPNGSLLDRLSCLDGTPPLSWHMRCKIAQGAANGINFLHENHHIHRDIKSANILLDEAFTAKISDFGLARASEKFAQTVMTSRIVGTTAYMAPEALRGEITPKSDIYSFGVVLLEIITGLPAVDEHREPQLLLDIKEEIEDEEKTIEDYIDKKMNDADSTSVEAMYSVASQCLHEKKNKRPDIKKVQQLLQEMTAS
MAPKAP-K3(h), sequence (Q16644 whole entry): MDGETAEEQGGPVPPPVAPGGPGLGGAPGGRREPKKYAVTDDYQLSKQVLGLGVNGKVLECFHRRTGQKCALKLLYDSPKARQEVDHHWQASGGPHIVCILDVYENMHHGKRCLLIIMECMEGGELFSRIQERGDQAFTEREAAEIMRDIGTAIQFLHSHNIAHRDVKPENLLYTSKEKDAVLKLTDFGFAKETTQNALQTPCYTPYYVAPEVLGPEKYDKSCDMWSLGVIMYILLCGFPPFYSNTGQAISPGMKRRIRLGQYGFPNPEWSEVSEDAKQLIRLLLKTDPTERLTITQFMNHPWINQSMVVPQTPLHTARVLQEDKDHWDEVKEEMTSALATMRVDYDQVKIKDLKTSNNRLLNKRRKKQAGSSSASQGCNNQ
ULK3(h), sequence (Q6PHR2 whole entry): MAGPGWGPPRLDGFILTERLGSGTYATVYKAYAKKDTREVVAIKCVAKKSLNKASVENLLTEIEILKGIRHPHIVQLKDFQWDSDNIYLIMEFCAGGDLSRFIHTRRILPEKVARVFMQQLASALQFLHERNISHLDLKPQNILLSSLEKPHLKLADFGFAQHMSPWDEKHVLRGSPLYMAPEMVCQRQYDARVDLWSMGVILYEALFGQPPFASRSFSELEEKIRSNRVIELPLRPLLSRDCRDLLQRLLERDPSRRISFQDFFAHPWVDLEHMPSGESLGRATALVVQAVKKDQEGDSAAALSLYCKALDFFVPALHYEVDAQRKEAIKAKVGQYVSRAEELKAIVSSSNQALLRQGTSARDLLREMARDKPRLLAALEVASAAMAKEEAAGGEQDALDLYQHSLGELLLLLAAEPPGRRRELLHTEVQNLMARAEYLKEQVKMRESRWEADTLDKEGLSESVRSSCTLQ
SAPK3(h), sequence (P53778 whole entry): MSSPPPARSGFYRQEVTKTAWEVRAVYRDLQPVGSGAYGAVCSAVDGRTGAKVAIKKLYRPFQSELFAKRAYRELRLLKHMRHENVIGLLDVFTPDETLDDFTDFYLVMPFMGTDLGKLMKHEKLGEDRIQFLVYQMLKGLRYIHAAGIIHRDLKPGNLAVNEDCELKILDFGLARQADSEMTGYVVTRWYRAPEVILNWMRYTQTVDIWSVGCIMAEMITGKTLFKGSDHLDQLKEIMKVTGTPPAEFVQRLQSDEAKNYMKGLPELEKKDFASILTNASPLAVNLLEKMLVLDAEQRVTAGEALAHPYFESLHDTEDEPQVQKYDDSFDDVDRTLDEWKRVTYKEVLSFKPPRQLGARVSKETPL
MST1(h), sequence (Q13043 whole entry): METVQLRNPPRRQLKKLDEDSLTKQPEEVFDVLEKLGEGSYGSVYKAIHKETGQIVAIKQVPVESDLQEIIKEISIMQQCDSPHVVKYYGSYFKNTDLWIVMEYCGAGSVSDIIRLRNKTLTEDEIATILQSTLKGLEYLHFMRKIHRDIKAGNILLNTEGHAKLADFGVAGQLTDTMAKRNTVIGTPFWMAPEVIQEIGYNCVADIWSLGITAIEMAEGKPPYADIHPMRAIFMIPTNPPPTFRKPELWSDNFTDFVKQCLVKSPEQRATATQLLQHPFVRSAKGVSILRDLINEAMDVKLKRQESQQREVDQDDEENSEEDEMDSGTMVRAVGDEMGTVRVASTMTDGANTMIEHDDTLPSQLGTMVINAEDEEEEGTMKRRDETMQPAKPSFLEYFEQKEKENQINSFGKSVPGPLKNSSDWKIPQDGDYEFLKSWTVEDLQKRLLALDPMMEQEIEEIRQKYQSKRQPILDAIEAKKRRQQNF
T2 sequence (P84095 whole entry): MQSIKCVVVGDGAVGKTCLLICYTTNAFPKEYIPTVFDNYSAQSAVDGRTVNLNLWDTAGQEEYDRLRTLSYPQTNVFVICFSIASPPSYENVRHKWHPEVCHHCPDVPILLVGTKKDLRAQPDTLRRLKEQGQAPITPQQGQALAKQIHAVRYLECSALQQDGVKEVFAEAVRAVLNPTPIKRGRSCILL

COc1ccc(OC)c(NS(=O)(=O)c2ccc(NC(=O)CCSc3ccc(C)cc3)cc2)c1 [Compound A41]
Activity(%) [1]: 91% | Activity(%) [2]: 105% | Activity(%) [3]: 97% | Activity(%) [4]: 113% | Activity(%) [5]: 101% | % inh. [6]: 6% | TRIO-induced activation of RAC2 [7]: reduced | TRIO-induced RHOG activation [8]: no effect | Activity(%) [9]: 96% | Activity(%) [10]: 99% | Activity(%) [11]: 105% | Activity(%) [12]: 99% | Activity(%) [13]: 112% | Activity(%) [14]: 105%
